Source: patent US20240382629A1, “HETEROBIVALENT AND HOMOBIVALENT AGENTS TARGETING FIBROBLAST ACTIVATION PROTEIN ALPHA AND/OR PROSTATE-SPECIFIC MEMBRANE ANTIGEN” (The Johns Hopkins University, priority 2021, published 2024)
Where “and” joins values, the source holds several entries; their conditions need not be identical. Equal entries are not always repeated.

System: U87 tumor
Experiment: Biodistribution ([^18F]JHU1221823), carrier / specific activity study
Type: in vivo, mouse
Details: individual mouse
Text: Biodistribution of Representative Compounds

[1] = + 0.05 nmole carrier, 60 min post injection
[2] = + 0.1 nmole carrier, 60 min post injection
[3] = + 0.25 nmole carrier, 60 min post injection
[4] = NOD/SCID, U87 tumor, Carrier 350 (350 mCi/μmol), 60 min post injection
[5] = NOD/SCID, U87 tumor, Carrier 700, 60 min post injection

N#C[C@@H]1CCCN1C(=O)CNC(=O)c1ccnc2ccc(OCCCNC(=O)CCOCCOCCOCCOCCNC(=O)[C@H](CCCCNC(=O)c3ccc([18F])nc3)NC(=O)CN3CCN(CC(=O)O)CCN(CC(=O)O)CCN(CC(=O)O)CC3)cc12 [[^18F]JHU1221823]
Bladder % ID/g (+ 0.01 nmole carrier): 1.82 % ID/g and 2.18 % ID/g
Blood % ID/g (+ 0.01 nmole carrier): 11.19 % ID/g and 11.39 % ID/g
Brain % ID/g (+ 0.01 nmole carrier): 0.32 % ID/g and 0.28 % ID/g
Fat % ID/g (+ 0.01 nmole carrier): 0.23 % ID/g and 0.44 % ID/g
Femur % ID/g (+ 0.01 nmole carrier): 3.05 % ID/g and 4.01 % ID/g
Heart % ID/g (+ 0.01 nmole carrier): 4.74 % ID/g and 4.50 % ID/g
Kidney % ID/g (+ 0.01 nmole carrier): 2.82 % ID/g and 3.11 % ID/g
Large intestine % ID/g (+ 0.01 nmole carrier): 1.60 % ID/g and 1.63 % ID/g
Liver % ID/g (+ 0.01 nmole carrier): 2.78 % ID/g and 3.40 % ID/g
Lung % ID/g (+ 0.01 nmole carrier): 6.08 % ID/g and 6.21 % ID/g
Muscle % ID/g (+ 0.01 nmole carrier): 2.03 % ID/g and 1.73 % ID/g
Pancreas % ID/g (+ 0.01 nmole carrier): 4.01 % ID/g and 4.14 % ID/g
Salivary gland % ID/g (+ 0.01 nmole carrier): 7.47 % ID/g and 7.48 % ID/g
Small intestine % ID/g (+ 0.01 nmole carrier): 2.22 % ID/g and 2.17 % ID/g
Spleen % ID/g (+ 0.01 nmole carrier): 1.88 % ID/g and 2.13 % ID/g
Stomach % ID/g (+ 0.01 nmole carrier): 1.33 % ID/g and 1.65 % ID/g
Tumor % ID/g (+ 0.01 nmole carrier): 1.88 % ID/g and 2.86 % ID/g
Bladder % ID/g [1]: 6.14 % ID/g and 2.43 % ID/g
Blood % ID/g [1]: 7.42 % ID/g and 7.67 % ID/g
Brain % ID/g [1]: 0.20 % ID/g and 0.21 % ID/g
Fat % ID/g [1]: 0.94 % ID/g and 0.61 % ID/g
Femur % ID/g [1]: 2.83 % ID/g and 3.67 % ID/g
Heart % ID/g [1]: 3.03 % ID/g and 3.04 % ID/g
Kidney % ID/g [1]: 2.02 % ID/g and 2.55 % ID/g
Large intestine % ID/g [1]: 1.48 % ID/g and 1.58 % ID/g
Liver % ID/g [1]: 1.92 % ID/g and 2.34 % ID/g
Lung % ID/g [1]: 4.05 % ID/g and 4.16 % ID/g
Muscle % ID/g [1]: 1.47 % ID/g and 2.20 % ID/g
Pancreas % ID/g [1]: 4.01 % ID/g and 6.69 % ID/g
Salivary gland % ID/g [1]: 10.22 % ID/g and 11.63 % ID/g
Small intestine % ID/g [1]: 1.46 % ID/g and 2.18 % ID/g
Spleen % ID/g [1]: 1.37 % ID/g and 1.62 % ID/g
Stomach % ID/g [1]: 1.07 % ID/g and 1.48 % ID/g
Tumor % ID/g [1]: 2.59 % ID/g and 4.26 % ID/g
Bladder % ID/g [2]: 1.62 % ID/g and 1.87 % ID/g
Blood % ID/g [2]: 3.88 % ID/g and 4.32 % ID/g
Brain % ID/g [2]: 0.08 % ID/g and 0.17 % ID/g
Fat % ID/g [2]: 2.17 % ID/g and 1.13 % ID/g
Femur % ID/g [2]: 3.44 % ID/g and 4.00 % ID/g
Heart % ID/g [2]: 1.80 % ID/g and 1.87 % ID/g
Kidney % ID/g [2]: 2.03 % ID/g and 2.00 % ID/g
Large intestine % ID/g [2]: 2.91 % ID/g and 1.79 % ID/g
Liver % ID/g [2]: 1.01 % ID/g and 1.30 % ID/g
Lung % ID/g [2]: 2.31 % ID/g and 2.83 % ID/g
Muscle % ID/g [2]: 1.69 % ID/g and 2.25 % ID/g
Pancreas % ID/g [2]: 4.18 % ID/g and 5.17 % ID/g
Salivary gland % ID/g [2]: 7.28 % ID/g and 9.35 % ID/g
Small intestine % ID/g [2]: 1.66 % ID/g and 1.63 % ID/g
Spleen % ID/g [2]: 0.91 % ID/g and 1.01 % ID/g
Stomach % ID/g [2]: 0.89 % ID/g and 1.12 % ID/g
Tumor % ID/g [2]: 5.48 % ID/g and 4.73 % ID/g
Bladder % ID/g [3]: 3.04 % ID/g and 1.98 % ID/g
Blood % ID/g [3]: 1.76 % ID/g and 2.03 % ID/g
Brain % ID/g [3]: 0.08 % ID/g
Fat % ID/g [3]: 0.65 % ID/g and 0.37 % ID/g
Femur % ID/g [3]: 3.97 % ID/g and 4.56 % ID/g
Heart % ID/g [3]: 0.91 % ID/g
Kidney % ID/g [3]: 1.70 % ID/g and 2.15 % ID/g
Large intestine % ID/g [3]: 0.62 % ID/g and 0.68 % ID/g
Liver % ID/g [3]: 0.73 % ID/g and 0.77 % ID/g
Lung % ID/g [3]: 1.17 % ID/g and 1.57 % ID/g
Muscle % ID/g [3]: 1.32 % ID/g and 1.19 % ID/g
Pancreas % ID/g [3]: 2.11 % ID/g and 1.42 % ID/g
Salivary gland % ID/g [3]: 3.78 % ID/g and 2.85 % ID/g
Small intestine % ID/g [3]: 0.75 % ID/g and 1.07 % ID/g
Spleen % ID/g [3]: 0.44 % ID/g and 0.48 % ID/g
Stomach % ID/g [3]: 0.61 % ID/g and 0.77 % ID/g
Tumor % ID/g [3]: 3.93 % ID/g and 3.11 % ID/g
Bladder % ID/g [4]: 2.09 % ID/g and 6.57 % ID/g
Blood % ID/g [4]: 3.99 % ID/g and 4.29 % ID/g
Brain % ID/g [4]: 0.10 % ID/g and 0.09 % ID/g
Fat % ID/g [4]: 0.89 % ID/g and 0.82 % ID/g
Femur % ID/g [4]: 3.67 % ID/g and 3.18 % ID/g
Heart % ID/g [4]: 2.25 % ID/g and 2.02 % ID/g
Kidney % ID/g [4]: 2.00 % ID/g and 2.27 % ID/g
Large intestine % ID/g [4]: 2.18 % ID/g and 1.97 % ID/g
Liver % ID/g [4]: 1.71 % ID/g and 1.81 % ID/g
Lung % ID/g [4]: 2.51 % ID/g and 2.98 % ID/g
Muscle % ID/g [4]: 2.02 % ID/g and 2.04 % ID/g
Pancreas % ID/g [4]: 10.66 % ID/g and 9.69 % ID/g
Salivary gland % ID/g [4]: 9.63 % ID/g and 9.35 % ID/g
Small intestine % ID/g [4]: 2.86 % ID/g and 1.91 % ID/g
Spleen % ID/g [4]: 1.60 % ID/g and 1.01 % ID/g
Stomach % ID/g [4]: 1.47 % ID/g
Tumor % ID/g [4]: 8.22 % ID/g and 9.06 % ID/g
Bladder % ID/g [5]: 8.20 % ID/g
Blood % ID/g [5]: 5.82 % ID/g
Brain % ID/g [5]: 0.16 % ID/g
Fat % ID/g [5]: 0.90 % ID/g
Femur % ID/g [5]: 2.41 % ID/g
Heart % ID/g [5]: 3.48 % ID/g
Kidney % ID/g [5]: 2.45 % ID/g
Large intestine % ID/g [5]: 2.26 % ID/g
